Holding throughout (type): functional, cell-based
Experiment [1] concerns MCF7. Nature of the experiment: Growth inhibition of human MCF7 cells after 48 hrs by MTS assay. A general note: Formazan colour is commonly taken as a measure of viable cells.
Experiment [2] deals with SMMC-7721. Nature of the experiment: Growth inhibition of human SMMC7721 cells after 48 hrs by MTS assay.
In experiment [3] the test system is SW480. Nature of the experiment: Growth inhibition of human SW480 cells after 48 hrs by MTS assay.
Experiment [4] deals with HL-60. Nature of the experiment: Growth inhibition of human HL60 cells after 48 hrs by MTS assay.
Experiment [5] has as its system A549. Kind of experiment: Growth inhibition of human A549 cells after 48 hrs by MTS assay.

The text below walks through data of ChEMBL document CHEMBL4138293, “Modified Abietane Diterpenoids from Whole Plants of Selaginella moellendorffii” (J Nat Prod, 2018).

The structures appear in SMILES notation. Calls of active or inactive are those of the source. The calls are words filed in the database; no cut-off is given here.

Regarding `C=C1[C@@H]2CC(=O)c3cc(C(C)C)c(O)cc3[C@@]2(C)CC(=O)[C@]12CCC1=C(C2)[C@@H]2CC(=O)c3cc(C(C)C)c(O)cc3[C@@]2(C)C[C@@H]1O`, the IC50 – broadly, the midpoint of a concentration-inhibition curve – in experiment [1] (MCF7, 48 h) came to 9000 nM. The “growth inhibition (GI)” value in experiment [2], in experiment [3], in experiment [4] and in experiment [5] was “inactive” each time.

Consider `CC(C)c1cc2c(cc1O)[C@@]1(C)CC[C@](C)(O)[C@@](O)(CO)[C@@H]1CC2=O`, for which the “growth inhibition (GI)” value in experiment [1], in experiment [2], in experiment [3], in experiment [4] and in experiment [5] was “inactive” each time.

`C=C1[C@@H]2CC(=O)c3cc(C(C)C)c(O)cc3[C@@]2(C)CC(=O)[C@]12CCC1=C(C2)C2=CC(=O)c3cc(C(C)C)c(O)cc3[C@@]2(C)C[C@@H]1O`: the “growth inhibition (GI)” value in experiment [1], in experiment [2], in experiment [3], in experiment [4] and in experiment [5] was “inactive” in each case.

Take `CC(=O)O[C@H]1C(=O)[C@@]2(C)[C@H]([C@H](OC(=O)c3ccccc3)[C@]3(O)C[C@H](OC(=O)[C@H](O)[C@@H](NC(=O)c4ccccc4)c4ccccc4)C(C)=C1C3(C)C)[C@]1(OC(C)=O)CO[C@@H]1C[C@@H]2O` [PACLITAXEL]: the IC50 in experiment [2] (SMMC-7721, 48 h) was under 8 nM; in experiment [3] (SW480, 48 h) it was under 8 nM; in experiment [4] (HL-60, 48 h), under 8 nM.
